This is an account of results in US5248221A, “Antifouling coating composition comprising lactone compounds, method for protecting aquatic structures, and articles protected against fouling organisms” (Rohm and Haas Company, priority 1992, dated 1993).

SMILES strings stand for the structures. Converted amounts (≈) assume the structure as drawn.

One data set deals with nauplius stage larvae. Briefly: whole plant or invertebrate. To be noted: for LC50: Amphibalanus amphitrite, read-out: ED50 (half-maximal inhibition). How it is done:
Toxicity assays were conducted by adding nauplius stage larvae to 50×5 mm polystyrene Petri dishes or glass vials containing 5 ml of 100 kDa iltered seawater. […] Dishes or vials receiving no test compound served as controls. The dishes or vials were incubated at 28° C. with a 15:9 light:dark cycle. […] The number of living and dead larvae were then counted. Probit analysis was used to obtain concentrations corresponding to half-maximal inhibition (EC50 values).

Data set [1] deals with cyprid larvae of the barnacle Balanus amphitrite. Briefly: Settlement assay for cyprid-stage barnacle larvae (% settlement).
Experimental: All compounds were tested for their ability to inhibit settlement by cyprid larvae of the barnacle Balanus amphitrite . […] Controls consisted of barnacle larvae and filtered seawater added to the dishes or vials without test compound. Dishes were then incubated for 20-24 hrs at 28° C. with light for approximately 15 hours and in darkness for approximately 9 hours. The dishes or vials were then removed from the incubator, examined under a dissecting microscope to determine whether larvae were living or dead. Larvae were then killed by addition of several drops of 10% formalin solution. Settlement rate was quantified as number of larvae that had attached to the dish or vial surface, expressed as a percentage of total larvae in the dish or vial. Experiments were performed in duplicate.
A number of lactones were tested for control of barnacle settlement. All lactones were tested at a concentration of 3×10^-6 M in dishes containing seawater. The larvae were added and the test conducted as described above.
Five ml of each solution were added to duplicate dishes. The larvae were then added to the dishes and the test conducted as described above.
Aliquots of these solutions were taken and added to duplicate dishes. […] The larvae were then added to the dishes and the test conducted as described above.
A series of solutions of a-angelica lactone in seawater at concentrations ranging from 500 μg/ml to 5 ng/ml were prepared. Aliquots of these solutions were taken and added to duplicate dishes. […] The larvae were then added to the dishes and the test conducted as described above.
A solution of 2-coumaranone (25 μg in 50 ml of filtered, aged seawater) was prepared. The larvae were then added to the dishes and the test conducted as described above.
A series of solutions of γ-decalactone in seawater at concentrations ranging from 500 μg/ml to 5 pg/ml were prepared. Aliquots of these solutions were taken and added to duplicate dishes. […] The larvae were then added to the dishes and the test conducted as described above.
A series of solutions of γ-valerolactone in seawater at concentrations ranging from 500 μg/ml to 500 pg/ml were prepared. Aliquots of these solutions were taken and added to duplicate dishes. […] The larvae were then added to the dishes and the test conducted as described above.
The mark [2] stands for this setting: Table 1, 3×10^-6 M in seawater, dishes, Control 35.

`CCCCCCC1CCC(=O)O1` (stereo not drawn) [γ-decalactone]: the LC50 in the data set on nauplius stage larvae was found to be 0.004 µg/mL (≈ 0.0235 µM). Further, the “% Settlement” value is reported as 3% in data set [1] (setting [2]); 45% in data set [1] (Table 7 (Example 7), 5 pg/ml, Control 66); 52% in data set [1] (Table 7 (Example 7), 50 pg/ml, Control 66); 44% in data set [1] (Table 7 (Example 7), 500 pg/ml, Control 66); 32% in data set [1] (Table 7 (Example 7), 5 ng/ml, Control 66); 25% in data set [1] (Table 7 (Example 7), 50 ng/ml, Control 66). For the same compound, the “% Settlement” value was 8% in data set [1] (Table 7 (Example 7), 500 ng/ml, Control 66); 25% in data set [1] (Table 7 (Example 7), 5 μg/ml, Control 66); 1% in data set [1] (Table 7 (Example 7), 50 μg/ml, Control 66); 0% in data set [1] (Table 7 (Example 7), 500 μg/ml, Control 66).
`CCCCCCC1CCCC(=O)O1` (stereo not drawn) [δ-undecalactone, reference compound]: the “% Settlement” value in data set [1] (setting [2]) is given as 40%.
Take `CC1CCC(=O)O1` (stereo not drawn) [γ-valerolactone]: the “% Settlement” value in data set [1] (setting [2]) came out at 26%; in data set [1] (Table 8 (Example 8), 500 pg/ml, Control 66), 55%; in data set [1] (Table 8 (Example 8), 5 ng/ml, Control 66), 43%; in data set [1] (Table 8 (Example 8), 50 ng/ml, Control 66), 42%; in data set [1] (Table 8 (Example 8), 500 ng/ml, Control 66), 48%; in data set [1] (Table 8 (Example 8), 5 μg/ml, Control 66), 42%. The “% Settlement” value in data set [1] (Table 8 (Example 8), 50 μg/ml, Control 66) was determined as 37%; in data set [1] (Table 8 (Example 8), 500 μg/ml, Control 66) it was 52%.
Turning to `CCCCC1CCC(=O)O1` (stereo not drawn) [γ-octanolactone], the “% Settlement” value in data set [1] (setting [2]) is given as 39%.
Turning to `CC1=C2[C@H]3OC(=O)[C@@H](C)[C@@H]3CC[C@@]2(C)C=CC1=O` [α-santonin], the LC50 in the data set with nauplius stage larvae was found to be 14 µg/mL (≈ 56.8 µM).
Take `CC1=CCC(=O)O1` [α-angelica lactone]: the LC50 in the data set on nauplius stage larvae was 70 µg/mL (≈ 714 µM). Besides, the “% Settlement” value in data set [1] (Table 4 (Example 4), 5 ng/ml, Control 62) worked out at 62%; in data set [1] (Table 4 (Example 4), 50 ng/ml, Control 62) it was 65%; in data set [1] (Table 4 (Example 4), 500 ng/ml, Control 62) it was 60%; in data set [1] (Table 4 (Example 4), 5 μg/ml, Control 62), 54%; in data set [1] (Table 4 (Example 4), 50 μg/ml, Control 62), 39%; in data set [1] (Table 4 (Example 4), 500 μg/ml, Control 62) it was 0%. Further, the “% Settlement” value in data set [1] (Table 5 (Example 5, second test), 5 ng/ml, Control 66) is listed as 41%; in data set [1] (Table 5 (Example 5, second test), 50 ng/ml, Control 66) it was 53%; in data set [1] (Table 5 (Example 5, second test), 500 ng/ml, Control 66), 33%; in data set [1] (Table 5 (Example 5, second test), 5 μg/ml, Control 66), 33%; in data set [1] (Table 5 (Example 5, second test), 50 μg/ml, Control 66), 3%; in data set [1] (Table 5 (Example 5, second test), 500 μg/ml, Control 66), 0%.
`C=C1CCOC1=O` [α-methylene-γ-butyrolactone]: the “% Settlement” value in data set [1] (Table 2 (Example 2), 5 ng/ml, Control 62) came out at 61%; in data set [1] (Table 2 (Example 2), 50 ng/ml, Control 62), 62%; in data set [1] (Table 2 (Example 2), 500 ng/ml, Control 62) it was 58%; in data set [1] (Table 2 (Example 2), 5 μg/ml, Control 62), 36%; in data set [1] (Table 2 (Example 2), 50 μg/ml, Control 62), 0%; in data set [1] (Table 2 (Example 2), 500 μg/ml, Control 62), 0%. Further, the “% Settlement” value in data set [1] (Table 3 (Example 3, second test), 50 ng/ml, Control 66) stood at 49%; in data set [1] (Table 3 (Example 3, second test), 500 ng/ml, Control 66) it was 53%; in data set [1] (Table 3 (Example 3, second test), 5 μg/ml, Control 66), 47%; in data set [1] (Table 3 (Example 3, second test), 50 μg/ml, Control 66) it was 29%; in data set [1] (Table 3 (Example 3, second test), 500 μg/ml, Control 66), 5%.
Take `O=C1Cc2ccccc2O1` [2-coumaranone]: the “% Settlement” value in data set [1] (Table 6 (Example 6), nominal 5 ng/ml, Control 58) is listed as 54%; in data set [1] (Table 6 (Example 6), nominal 50 ng/ml, Control 58), 61%; in data set [1] (Table 6 (Example 6), nominal 500 ng/ml, Control 58), 59%; in data set [1] (Table 6 (Example 6), nominal 5 μg/ml, Control 58) it was 51%; in data set [1] (Table 6 (Example 6), nominal 50 μg/ml, Control 58), 64%; in data set [1] (Table 6 (Example 6), nominal 500 μg/ml, Control 58), 0%.
Take `C=C1C(=O)O[C@@H]2C[C@@]3(C)CCC[C@H](C)C3=C[C@H]12` [alantolactone]: the “ED50 (half-maximal inhibition)” value in the data set on nauplius stage larvae (glass) came to 0.5 µg/mL (≈ 2.15 µM).
For the compound `O=C1CCCCCO1` [ε-caprolactone, reference compound], in data set [1] (setting [2]), the “% Settlement” value was found to be 41%.
